Experimental data from US20250230193A1, “CYCLIC COMPOUND HAVING SELECTIVE KRAS INHIBITORY EFFECT ON HRAS AND NRAS” (CHUGAI SEIYAKU KABUSHIKI KAISHA, priority 2022, published 2025).

Assays:
[1] = biological target: GDP-bound NRAS wild-type protein (Homo sapiens, UniProt P01111); test: Binding to NRAS by surface plasmon resonance (SPR), Single Cycle Kinetics; settings: KD ratio NRAS/KRAS, SPR
[2] = biological target: GDP-bound HRAS wild-type protein (Homo sapiens, UniProt P01112); test: Binding to HRAS by surface plasmon resonance (SPR), Single Cycle Kinetics; settings: KD ratio HRAS/KRAS, SPR
Chain of GDP-bound HRAS wild-type protein (P01112 whole entry): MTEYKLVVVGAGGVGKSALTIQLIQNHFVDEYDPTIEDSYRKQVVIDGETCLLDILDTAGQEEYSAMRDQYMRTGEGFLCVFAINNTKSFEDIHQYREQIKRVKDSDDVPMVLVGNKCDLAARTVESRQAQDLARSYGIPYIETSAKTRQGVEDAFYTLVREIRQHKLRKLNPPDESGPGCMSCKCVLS

Chain of GDP-bound NRAS wild-type protein (P01111 whole entry): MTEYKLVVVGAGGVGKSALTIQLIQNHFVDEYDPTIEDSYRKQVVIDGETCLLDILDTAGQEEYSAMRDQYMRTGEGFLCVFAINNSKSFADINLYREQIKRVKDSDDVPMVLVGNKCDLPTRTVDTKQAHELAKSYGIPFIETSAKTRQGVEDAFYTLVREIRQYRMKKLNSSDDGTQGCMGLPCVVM

Row | SMILES | NRAS/KRAS (ratio of KD value with respect to GDP-bound NRAS wild-type protein to KD value with respect to KRAS) [1] | HRAS/KRAS (ratio of KD value with respect to GDP-bound HRAS wild-type protein to KD value with respect to KRAS) [2]
1 | CC[C@H](C)[C@@H]1NC(=O)[C@H](CC(C)C)N(C)C(=O)C[C@@H](C(=O)N2CCOCC2)NC(=O)[C@H](C2CCCC2)N(C)C(=O)C2(CCCC2)NC(=O)[C@@H]2CCCN2C(=O)[C@H](CCc2cc(F)c(C(F)(F)F)c(F)c2)NC(=O)CN(C)C(=O)[C@H](Cc2ccc(C(F)(F)F)cc2)N2CCCC[C@@H](C2=O)N(C)C(=O)CN(C)C1=O [PP0541] | B (a compound having 3 or more and less than 10 is denoted as B) | B (a compound having 3 or more and less than 10 is denoted as B)
2 | CC[C@H](C)[C@@H]1NC(=O)[C@H](CC(C)C)N(C)C(=O)C[C@@H](C(=O)N2CCOCC2)N(C)C(=O)[C@H](C2CCCC2)N(C)C(=O)C2(CCCC2)NC(=O)[C@@H]2CCCN2C(=O)[C@H](CCc2cc(F)c(C(F)(F)F)c(F)c2)NC(=O)CN(C)C(=O)[C@H](Cc2ccc(C(F)(F)F)cc2)N2CCCC[C@@H](C2=O)N(C)C(=O)CNC1=O [PP0542] | B (a compound having 3 or more and less than 10 is denoted as B) | B (a compound having 3 or more and less than 10 is denoted as B)
3 | CC[C@H](C)[C@@H]1NC(=O)[C@H](CC(C)C)N(C)C(=O)C[C@@H](C(=O)N2CCOCC2)N(C)C(=O)[C@H](C2CCCC2)N(C)C(=O)C2(CCCC2)NC(=O)[C@@H]2CCCN2C(=O)[C@H](CCc2cc(F)c(C(F)(F)F)c(F)c2)NC(=O)CN(C)C(=O)[C@H](Cc2ccc(C(F)(F)F)cc2)N2CCCC[C@@H](C2=O)N(C)C(=O)[C@H](C)NC1=O [PP0543] | B (a compound having 3 or more and less than 10 is denoted as B) | B (a compound having 3 or more and less than 10 is denoted as B)
4 | CC[C@H](C)[C@@H]1NC(=O)[C@H](CC(C)C)N(C)C(=O)C[C@@H](C(=O)N2CCOCC2)N(C)C(=O)[C@H](C2CCCC2)N(C)C(=O)C2(CCCC2)NC(=O)[C@@H]2CCCN2C(=O)[C@H](CCc2cc(F)c(C(F)(F)F)c(F)c2)NC(=O)CN(C)C(=O)[C@H](Cc2ccc(C(F)(F)F)cc2)N2CCCC[C@@H](C2=O)N(C)C(=O)[C@H](C)N(C)C1=O [PP0544] | B (a compound having 3 or more and less than 10 is denoted as B) | B (a compound having 3 or more and less than 10 is denoted as B)
5 | CC[C@H](C)[C@@H]1NC(=O)[C@H](CC(C)C)N(C)C(=O)C[C@@H](C(=O)N2CCOCC2)N(C)C(=O)[C@H](C2CCCC2)N(C)C(=O)C2(CCCC2)NC(=O)[C@@H]2CCCN2C(=O)[C@H](CCc2cc(F)c(C(F)(F)F)c(F)c2)NC(=O)CN(C)C(=O)[C@H](Cc2ccc(C(F)(F)F)cc2)N2CCCC[C@@H](C2=O)N(C)C(=O)CN(CC)C1=O [PP0545] | B (a compound having 3 or more and less than 10 is denoted as B) | B (a compound having 3 or more and less than 10 is denoted as B)
6 | CC[C@H](C)[C@@H]1NC(=O)[C@H](CC(C)C)N(C)C(=O)C[C@@H](C(=O)N2CCOCC2)N(C)C(=O)[C@H](C2CCCC2)N(C)C(=O)C2(CCCC2)NC(=O)[C@@H]2CCCN2C(=O)[C@H](CCc2cc(F)c(C(F)(F)F)c(F)c2)NC(=O)CN(C)C(=O)[C@H](Cc2ccc(C(F)(F)F)cc2)N2CCCC[C@@H](C2=O)N(C)C(=O)[C@@H]2CCCN2C1=O [PP0547] | B (a compound having 3 or more and less than 10 is denoted as B) | B (a compound having 3 or more and less than 10 is denoted as B)
7 | CC[C@H](C)[C@@H]1NC(=O)[C@H](CC(C)C)N(C)C(=O)C[C@@H](C(=O)N2CCOCC2)N(C)C(=O)[C@H](C2CCCC2)N(C)C(=O)C2(CCCC2)NC(=O)[C@@H]2CCCN2C(=O)[C@H](CCc2cc(F)c(C(F)(F)F)c(F)c2)NC(=O)CN(C)C(=O)[C@H](Cc2ccc(C(F)(F)F)cc2)N2CCCC[C@@H](C2=O)N(C)C(=O)[C@@H]2CCCCN2C1=O [PP0548] | C (A compound having a KD ratio of 0.1 or more and less than 3 is denoted as C) | B (a compound having 3 or more and less than 10 is denoted as B)
8 | CC[C@H](C)[C@@H]1NC(=O)[C@H](C)N(C)C(=O)C[C@@H](C(=O)N2CCOCC2)N(C)C(=O)[C@H](C2CCCC2)N(C)C(=O)C2(CCCC2)NC(=O)[C@@H]2CCCN2C(=O)[C@H](CCc2cc(F)c(C(F)(F)F)c(F)c2)NC(=O)CN(C)C(=O)[C@H](Cc2ccc(C(F)(F)F)cc2)N2CCCC[C@@H](C2=O)N(C)C(=O)CN(C)C1=O [PP0549] | C (A compound having a KD ratio of 0.1 or more and less than 3 is denoted as C) | B (a compound having 3 or more and less than 10 is denoted as B)
9 | CC[C@H](C)[C@@H]1NC(=O)[C@H](CC)N(C)C(=O)C[C@@H](C(=O)N2CCOCC2)N(C)C(=O)[C@H](C2CCCC2)N(C)C(=O)C2(CCCC2)NC(=O)[C@@H]2CCCN2C(=O)[C@H](CCc2cc(F)c(C(F)(F)F)c(F)c2)NC(=O)CN(C)C(=O)[C@H](Cc2ccc(C(F)(F)F)cc2)N2CCCC[C@@H](C2=O)N(C)C(=O)CN(C)C1=O [PP0550] | B (a compound having 3 or more and less than 10 is denoted as B) | B (a compound having 3 or more and less than 10 is denoted as B)
10 | CC[C@H](C)[C@@H]1NC(=O)[C@H](CC(C)C)N(C)C(=O)C[C@@H](C(=O)N2CCOCC2)N(C)C(=O)[C@H](C2CCCC2)N(C)C(=O)C2(CCCC2)NC(=O)[C@@H]2CCCN2C(=O)[C@H](CCc2cc(F)c(C(F)(F)F)c(F)c2)NC(=O)CN(C)C(=O)[C@H](Cc2ccc(C(F)(F)F)cc2)N2CCCC[C@@H](C2=O)N(C)C(=O)[C@H](CC)N(C)C1=O [PP0551] | C (A compound having a KD ratio of 0.1 or more and less than 3 is denoted as C) | B (a compound having 3 or more and less than 10 is denoted as B)
11 | CC[C@H](C)[C@@H]1NC(=O)[C@H](CC(C)C)N(C)C(=O)C[C@@H](C(=O)N2CCOCC2)N(C)C(=O)[C@H](C2CCCC2)N(C)C(=O)C2(CCCC2)NC(=O)[C@@H]2CCCN2C(=O)[C@H](CCc2cc(F)c(C(F)(F)F)c(F)c2)NC(=O)CN(C)C(=O)[C@H](Cc2ccc(C(F)(F)F)cc2)N2CCCC[C@@H](C2=O)N(C)C(=O)CN(C)C1=O [PP0552] | B (a compound having 3 or more and less than 10 is denoted as B) | B (a compound having 3 or more and less than 10 is denoted as B)
12 | CCO[C@@H]1C[C@H]2C(=O)NC3(CCCC3)C(=O)N(C)[C@@H](C3CCCC3)C(=O)N(C)[C@H](C(=O)N3CCOCC3)CC(=O)N(C)[C@@H](CC(C)C)C(=O)N[C@@H]([C@@H](C)CC)C(=O)N(C)CC(=O)N(C)[C@H]3CCCCN(C3=O)[C@@H](Cc3ccc(C(F)(F)F)cc3)C(=O)N(C)CC(=O)N[C@@H](CCc3cc(F)c(C(F)(F)F)c(F)c3)C(=O)N2C1 [PP0554] | B (a compound having 3 or more and less than 10 is denoted as B) | B (a compound having 3 or more and less than 10 is denoted as B)
13 | CC[C@H](C)[C@@H]1NC(=O)[C@H](CC(C)C)N(C)C(=O)C[C@@H](C(=O)N2CCOCC2)N(C)C(=O)[C@H](C2CCCC2)N(C)C(=O)C2(CCCC2)NC(=O)[C@@H]2CC(=O)CN2C(=O)[C@H](CCc2cc(F)c(C(F)(F)F)c(F)c2)NC(=O)CN(C)C(=O)[C@H](Cc2ccc(C(F)(F)F)cc2)N2CCCC[C@@H](C2=O)N(C)C(=O)CN(C)C1=O [PP0555] | B (a compound having 3 or more and less than 10 is denoted as B) | B (a compound having 3 or more and less than 10 is denoted as B)
14 | CC[C@H](C)[C@@H]1NC(=O)[C@H](CC(C)C)N(C)C(=O)C[C@@H](C(=O)N2CCOCC2)N(C)C(=O)[C@H](C2CCCC2)N(C)C(=O)C2(CCCC2)NC(=O)[C@@H]2C[C@H](O)CN2C(=O)[C@H](CCc2cc(F)c(C(F)(F)F)c(F)c2)NC(=O)CN(C)C(=O)[C@H](Cc2ccc(C(F)(F)F)cc2)N2CCCC[C@@H](C2=O)N(C)C(=O)CN(C)C1=O [PP0556] | C (A compound having a KD ratio of 0.1 or more and less than 3 is denoted as C) | B (a compound having 3 or more and less than 10 is denoted as B)
15 | CC[C@H](C)[C@@H]1NC(=O)[C@H](CC(C)C)N(C)C(=O)C[C@@H](C(=O)N2CCOCC2)N(C)C(=O)[C@H](C2CCCC2)N(C)C(=O)C2(CCCC2)NC(=O)[C@@H]2C[C@H](OC)CN2C(=O)[C@H](CCc2cc(F)c(C(F)(F)F)c(F)c2)NC(=O)CN(C)C(=O)[C@H](Cc2ccc(C(F)(F)F)cc2)N2CCCC[C@@H](C2=O)N(C)C(=O)CN(C)C1=O [PP0557] | B (a compound having 3 or more and less than 10 is denoted as B) | B (a compound having 3 or more and less than 10 is denoted as B)
